One may read the IC50 as the point on the concentration scale where inhibition reaches its midpoint. A low value points to inhibition by little substance. In general, ED50 refers to the midpoint of the dose-response relation.

The results in this text go back to patent US6218384A, “3-Oxo-pyrido(1,2-a)benzimidazole-4-carboxyl and 4-oxo-azepino(1,2-a)benzimidazole-5-carboxyl derivatives useful in treating central nervous system disorders” (Ortho-McNeil Pharmaceutical, Inc., priority 1997, dated 2001).

Test [1] in a line: Screens in which the excluded compounds were tested (not specified). The conditions noted are these: compounds excluded from formula I.
Test [2] can be described thus: Horizontal Screen Test for Determining Benzodiazepine Antagonism. The conditions noted are these: mice; for percent antagonism: given parenterally with chlordiazepoxide (28 mg/kg, sc), values above 0 considered active. It counts as in vivo, male CD1 mice. The procedure: Some of the compounds of the invention were tested for their ability to antagonize the locomotor discoordinating property of chlordiazepoxide. Male CD1 mice, fasted for at least 16 hours but allowed access to water except during the period of observation, were placed on a horizontally-held screen (mesh size 1/4", wire diameter approximately 1.0 mm). The screen was inverted and mice which successfully climb to the top side of the screen within one minute were selected for testing. Selected mice were weighed and divided into equal groups. Test compounds or vehicle were administered to those mice parenterally at the same time as chlordrazepoxide (28 mg/kg, sc). At a pre-determined interval (or intervals) after administration, the animals were tested for their ability to climb to the top side of the inverted screen (pass the test). Activity is reported as the percent antagonism of the number of animals that fail the test in each treatment group relative to the corresponding chlordiazepoxide-treated group. Percent Antagonism =100×[(Percent Fail in Chlordiazepoxide Group)-(Percent Fail in Test Group)/Percent Fail in Chlordiazepoxide Group]. […] The percent antagonism values for the compounds of the present invention that were tested are as follows: CP 113=0, CP 53=0, CP 59=0,CP 102=0,[…],CP 7=17,CP 8=17,CP 9=30,CP 10=30, CP 11=92, CP 12=92, CP 13=100. Compounds having values above 0 were considered active as agents for treating drug overdoses, particularly overdoses of benzodiazepine.

The target in test [3] is benzodiazepine site of the GABA-A receptor. Kind of test: Benzodiazepine Receptor Binding Assay (inhibition of 3H-flunitrazepam binding). The conditions noted are these: Table 1; ca. 3 nM 3H-flunitrazepam, 25° C., 10-20 min; >10,000 = not active.
Test [4] in a line: Suppression of metrazol-induced convulsions. It counts as in vivo, male CD1 mice. The conditions noted are these: Table 1, ip, mice, clonic convulsions after sc CD90 metrazol, >30 = active dose not determined; for ED50: Mus musculus, 0.5 h, read-out: Metrazol (ip) ED50.
Test [5] can be described thus: Horizontal Screen Test for Motor Coordination. The settings on record: Table 1, mice, parenteral, >300 = active dose not determined; for ED50: Mus musculus, read-out: Horiz. Screen ED50. The class given is in vivo, male CD1 mice. The protocol: Some of the compounds of the invention were tested for their ability to act as general CNS agents and particularity as skeletal muscle relaxants and hypnotics/sedatives (Coughenour, L. L. et al. Pharm. Biochem. Behav. 1977, 6, 351). Male CD1 mice, fasted for at least 16 hours but allowed access to water except during the period of observation, were placed on a horizontally-held screen (mesh size 1/4", wire diameter approximately 1.0 mm). The screen was inverted and mice which successfully climb to the top side of the screen within one minute were selected for testing. Selected mice were weighed and divided into equal groups. Test compounds or vehicle were administered to those mice parenterally. At a pre-determined interval (or intervals) after administration, the animals were tested for their ability to climb to the top side of the inverted screen (pass the test). Activity is reported as the percent reduction in the number of animals that pass the test in each treatment group relative to the corresponding vehicle-treated group. Percent Reduction=100×([Percent Pass in Vehicle Group]-[Percent Pass in Test Group]/Percent Pass in Vehicle Group). Test compounds which produce a 50% or greater reduction in the number passing the test were considered active. ED50 values of the active compounds were calculated by the method of probits (Finney, D. J. 1971. Probit Analysis. London: Cambridge University Press) and are listed in Tables 1 to 5.

Test [6] is described as follows: Suppression of anxiety (punished licking, conflict test) in the adult male rat. It counts as in vivo, male rats. The conditions noted are these: Table 1, ip, minimum effective dose, >10 = active dose not determined; for minimal effective dose: read-out: Conflict (ip) MED. A digest of the protocol:
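Rats were deprived of water for 48 h and food for 24 h, with unpunished training the day before. Testing began at expected peak drug activity: 3-min session, every 20th lick punished by a 0.2-s shock.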

For `O=C(Nc1ccccc1C(F)(F)F)C1=C(O)CCn2c1nc1ccccc12` [1,2-dihydro-3-hydroxy-N-(2-trifluoromethylphenyl)-pyrido(1,2-a)benzimidazole-4-carboxamide], the “biological activity in the screens in which they have been tested” value (from here on “biological activity in the screens”) in test [1] is reported as “none of these compounds has exhibited biological activity”.

As for `CN(C)c1cc(F)ccc1NC(=O)C1=C(O)CCn2c1nc1ccccc12` [1,2-dihydro-N-(2-dimethylamino-4-fluorophenyl)-3-hydroxypyrido(1,2-a)benzimidazole-4-carboxamide], the “biological activity in the screens” value in test [1] is “none of these compounds has exhibited biological activity”.

Regarding `O=C(Nc1ccncc1)C1=C(O)CCn2c1nc1ccc(Cl)cc12` [8-chloro-1,2-dihydro-3-hydroxy-N-(4-pyridyl)-pyrido(1,2-a)benzimidazole-4-carboxamide], the “biological activity in the screens” value in test [1] is listed as “none of these compounds has exhibited biological activity”.

`COc1ccc2c(c1)nc1n2CCC(O)=C1C(=O)Nc1ccccc1` [CP 12, 1,2-Dihydro-3-hydroxy-7-methoxy-N-(phenyl)pyrido(1,2-a)benzimidazole-4-carboxamide]: in test [2], the percent antagonism is listed as 92%.

Regarding `COc1ccc(NC(=O)C2=C(O)CCn3c2nc2cc(OC)ccc23)cc1` [CP 13, 1,2-Dihydro-3-hydroxy-7-methoxy-N-(4-methoxyphenyl)pyrido(1,2-a)benzimidazole-4-carboxamide], the percent antagonism in test [2] is 100%.

Take `O=C1CCN2C(=C1C(=O)Nc1ncncn1)Nc1ccccc12` [CP 53]: in test [2], the percent antagonism is 0%.

For the molecule `O=C(NCc1ccncc1)C1=C(O)CCn2c1nc1ccccc12` [CP 59, 1,2-Dihydro-3-hydroxy-N-(4-pyridylmethyl)pyrido(1,2-a)benzimidazole-4-carboxamide], in test [2], the percent antagonism was 0%.

Regarding `CNC(=O)C1=C(O)CCn2c1nc1ccccc12` [CP 102, 1,2-Dihydro-3-hydroxy-N-methyl-pyrido(1,2-a)benzimidazole-4-carboxamide], the percent antagonism in test [2] is recorded as 0%.

In the case of `O=C(Nc1ccccc1F)C1=C(O)CCn2c1nc1cc(Cl)ccc12` [CP 113, 7-Chloro-1,2-dihydro-3-hydroxy-N-(2-fluorophenyl)-pyrido(1,2-a)benzimidazole-4-carboxamide], the percent antagonism in test [2] is 0%.

As to `CN(C)c1ccc(NC(=O)C2=C(O)CCn3c2nc2ccc(Cl)cc23)cc1` [N-(4-(dimethylamino)phenyl)-8-chloro-1,2-dihydro-3-hydroxypyrido(1,2-a)benzimidazole-4-carboxamide], the “biological activity in the screens” value in test [1] is recorded as “none of these compounds has exhibited biological activity”.

With `CNC1=Nc2ccc(Cl)cc2C(c2ccccc2)=[N+]([O-])C1` [chlordiazepoxide, reference compound], the “impairment of the ability to pass the inverted screen test” value in test [2] (chlordiazepoxide 28 mg/kg, sc) was “impairs the ability of all animals to pass this test”.

For the molecule `CCCCc1ccc(NC(=O)C2=C3Nc4ccccc4N3CCC2=O)cc1` [compound 17], the IC50 in test [3] is > 10 µM. For the same molecule, the ED50 in test [4] was > 10 mg/kg; in test [5], 300 mg/kg.

For the molecule `Cc1cccc(C)c1NC(=O)C1=C2Nc3ccccc3N2CCC1=O` [compound 19], in test [3], the concentration for half-maximal inhibition (IC50) was 7.7 µM. The ED50 in test [4] was > 30 mg/kg; in test [5] it was 300 mg/kg. Moreover, the minimal effective dose in test [6] is > 10 mg/kg.

On to `O=C1CCN2C(=C1C(=O)Nn1cnnc1)Nc1ccccc12` [compound 42], for which the IC50 in test [3] worked out at 2.7 µM. The median effective dose (ED50) in test [4] was > 10 mg/kg; in test [5] it was 300 mg/kg. For the same molecule, the minimal effective dose in test [6] is > 10 mg/kg.

Molecule `C[n+]1ccc(NC(=O)C2=C3Nc4ccccc4N3CCC2=O)cc1` [compound 56] returned an IC50 in test [3] of 6.3 µM. For the same molecule, the values for the ED50 in test [4] and in test [5] were > 10 mg/kg and 100 mg/kg, respectively. In addition, in test [6], the minimal effective dose is > 10 mg/kg.

Consider `O=C1CCN2C(=C1C(=O)NC1CCNCC1)Nc1ccccc12` [compound 58], for which the IC50 in test [3] was > 10 µM. For the same molecule, the values for the ED50 in test [4] and in test [5] were > 10 mg/kg and 100 mg/kg, respectively. For the same molecule, the minimal effective dose in test [6] is > 10 mg/kg.

Consider `NC(=O)c1ccc(NC(=O)C2=C3Nc4ccccc4N3CCC2=O)cc1` [compound 90], for which the IC50 in test [3] came to 0.11 µM. The median effective dose (ED50) in test [4] and in test [5] was > 10 mg/kg each time. Also, the minimal effective dose in test [6] is > 10 mg/kg.

As to `O=C1CCN2C(=C1C(=O)Nc1cccc(F)c1)Nc1ccccc12` [compound 95], the IC50 in test [3] was 0.16 µM. For the same molecule, the ED50 in test [4] and in test [5] was > 10 mg/kg each time. Further, in test [6], the minimal effective dose was > 10 mg/kg.

Turning to `O=C1CCN2C(=C1C(=O)Nc1ccncc1F)Nc1ccccc12` [compound 97], the IC50 in test [3] was determined as 0.053 µM. In addition, the results for the ED50 in test [4] and in test [5] were 1 mg/kg and > 10 mg/kg, respectively. Moreover, in test [6], the minimal effective dose stood at 10 mg/kg.

For “N-(2-Fluorophenyl)-3-hydroxypyrido(1,2-a)benzimidazol-4-carboxamide [CP 139]”, in test [3], the IC50 was > 10 µM. In addition, in test [4] (30 min), the “Metrazol (ip) ED50” value is > 300 mg/kg. Moreover, the “Horiz. Screen ED50” value in test [5] was 300 mg/kg. Besides, in test [6], the “Conflict (ip) MED” value is recorded as > 10 mg/kg.
